# Like-named read-outs stand apart in the source and are kept apart here.
# Columns and labels:
# [1] = tested on: K-562 (leukemia cell line); assay: NCI-60 single-dose assay; assay type: cell-based; conditions: Homo sapiens, K562, read-out: growth inhibition (GI%) and cytotoxicity (negative values)
# Text: (§1) We first evaluated the cytotoxic activity of tricyclic-pyrrole carboxamides 1–20 using the NCI-60 cell line panel, representing nine different human cancers: leukemia, melanoma, and cancers of the lung, colon, central nervous system (CNS), ovary, kidney, prostate, and breast (the one-dose graph for compounds 1–20 is reported in Supplementary Materials, Figures S43–S62). Compounds 1, 5, 10, 11, 17, and 20 satisfied pre-determined threshold inhibition criteria in a minimum number of cell lines; therefore, they were also tested in the full five-dose assay (Figures S63–S68 in the Supplementary Materials).
# [2] = in vitro; conditions: African green monkey
# [3] = tested on: ZIKV, strain Brazil/2016/INMI1; assay: ZIKV viral yield reduction assay on Huh-7 cells; assay type: cell-based, Zika virus; conditions: for EC50: Zika virus
# Procedure: We developed a protocol to screen the potential antiviral activity of compounds 1–20 against ZIKV (strain Brazil) on Huh-7 cells, against an H1N1 IAV strain (PR/8/1934) on MDCK cells, and against SARS-CoV-2 (strain Milano) on Vero-TMPRSS. Each compound was tested in duplicate at concentrations of 50 μM, 5 μM, and 0.5 μM. Treatment was applied immediately after infection, and at 24–48 h post-infection, supernatants were collected to assess viral yield, determined as PFU/mL for ZIKV and SARS-CoV-2 or as TCID50/mL for IAV. The test allowed us to evaluate both the antiviral action and the cytotoxicity of each compound, comparing them with reference compounds, such as sofosbuvir for ZIKV and EIDD-1931 for IAV and SARS-CoV-2 (Supplementary Materials, Figures S87–S89).
# Viral yield reduction assays for ZIKV and SARS-CoV-2 were performed as previously described by Plicanti. Briefly, 1 × 10^4 Huh-7 cells/well and 1.2 × 10^4 VERO TMPRSS cells/well were infected with ZIKV (MOI 1) or SARS-CoV-2 (MOI 0.05) in a primary 96-well plate for 2 h at 37 °C, 5% CO2. […] Supernatants were collected after 48 h (Huh-7) or 24 h (VERO TMPRSS), diluted 3-fold, and added onto VERO E6 or VERO TMPRSS monolayers, respectively. After 2 h at 37 °C, the inoculum was replaced with 0.75% carboxymethyl cellulose (Merck®, Darmstadt, Germany) in DMEM 2% FBS. After 48–72 h, cells were then fixed with 4% buffered formalin solution (Merck®, Darmstadt, Germany) and stained with 1% crystal violet (Merck®, Darmstadt, Germany). Titres and percentage of inhibition were calculated as follows:
# PFU/mL = number of plaques*3^n/vol infection, where n is the dilution where plaques were counted:% inhibition = 100 × (1 − Titre-compound/Titre-untreated control) where Titre-compound and Titre-untreated control are the titres (PFU/mL) obtained on cells treated with compound or DMSO, respectively.
# SI was obtained by dividing CC50 by EC50 for each drug/virus/cell line. Compounds with SI values ≥ 10 were active in vitro.
# [4] = tested on: LOX IMVI (melanoma cell line); assay: NCI-60 single-dose assay; assay type: cell-based, human; conditions: Homo sapiens, LOX IMVI, read-out: growth inhibition (GI%) and cytotoxicity (negative values)
# Text: as §1
# [5] = tested on: NCI-H460 (non-small cell lung cancer cell line); assay: NCI-60 single-dose assay; assay type: cell-based, human; conditions: Homo sapiens, NCI-H460, read-out: growth inhibition (GI%) and cytotoxicity (negative values)
# Text: as §1
# [6] = tested on: NCI-H522 (non-small cell lung cancer cell line); assay: NCI-60 single-dose assay; assay type: cell-based, human; conditions: Homo sapiens, NCI-H522, read-out: growth inhibition (GI%) and cytotoxicity (negative values)
# Text: as §1
# [7] = tested on: COLO 205 (colon cancer cell line); assay: NCI-60 single-dose assay; assay type: cell-based, human; conditions: for inhibition at 10 µM: Homo sapiens, COLO 205, read-out: growth inhibition (GI%) and cytotoxicity (negative values)
# Text: as §1
# [8] = tested on: UACC-62 (melanoma cell line); assay: NCI-60 single-dose assay; assay type: cell-based, human; conditions: Homo sapiens, UACC-62, read-out: growth inhibition (GI%) and cytotoxicity (negative values)
# Text: as §1
# [9] = tested on: MOLT-4 (leukemia cell line); assay: NCI-60 single-dose assay; assay type: cell-based, human; conditions: Homo sapiens, MOLT-4, read-out: growth inhibition (GI%) and cytotoxicity (negative values)
# Text: as §1
# [10] = tested on: NCI-H226 (non-small cell lung cancer cell line); assay: NCI-60 single-dose assay; assay type: cell-based, human; conditions: Homo sapiens, NCI-H226, read-out: growth inhibition (GI%) and cytotoxicity (negative values)
# Text: as §1
# [11] = tested on: UO-31 (renal cancer cell line); assay: NCI-60 single-dose assay; assay type: cell-based, human; conditions: Homo sapiens, UO-31, read-out: growth inhibition (GI%) and cytotoxicity (negative values)
# Text: as §1
# [12] = tested on: HCT-116 (colon cancer cell line); assay: NCI-60 single-dose assay; assay type: cell-based, human; conditions: Homo sapiens, HCT-116, read-out: growth inhibition (GI%) and cytotoxicity (negative values)
# Text: as §1
# [13] = tested on: SR (leukemia cell line); assay: NCI-60 single-dose assay; assay type: cell-based, human; conditions: Homo sapiens, read-out: growth inhibition (GI%) and cytotoxicity (negative values)
# Text: as §1
# [14] = tested on: MDA-MB-435 (melanoma cell line); assay: NCI-60 single-dose assay; assay type: cell-based, human; conditions: Homo sapiens, MDA-MB-435, read-out: growth inhibition (GI%) and cytotoxicity (negative values)
# Text: as §1
# [15] = tested on: 786-0 (renal cancer cell line); assay: NCI-60 single-dose assay; assay type: cell-based, human; conditions: Homo sapiens, 786-0, read-out: growth inhibition (GI%) and cytotoxicity (negative values)
# Text: as §1
# [16] = tested on: HCT-15 (colon cancer cell line); assay: NCI-60 single-dose assay; assay type: cell-based, human; conditions: Homo sapiens, HCT-15, read-out: growth inhibition (GI%) and cytotoxicity (negative values)
# Text: as §1
# [17] = tested on: UACC-257 (melanoma cell line); assay: NCI-60 single-dose assay; assay type: cell-based, human; conditions: Homo sapiens, UACC-257, read-out: growth inhibition (GI%) and cytotoxicity (negative values)
# Text: as §1
# [18] = tested on: CCRF-CEM (leukemia cell line); assay: NCI-60 single-dose assay; assay type: cell-based, human; conditions: Homo sapiens, read-out: growth inhibition (GI%) and cytotoxicity (negative values)
# Text: as §1
# [19] = tested on: NCI-60 cell line panel; assay: NCI-60 single-dose assay, whole panel; assay type: cell-based, human; conditions: summary over the panel
# Text: as §1
# [20] = tested on: IAV strain A/PR/8/34 (H1N1); assay: microbe, parasite or virus in culture; conditions: Influenza A virus, MDCK, read-out: IAV/MDCK EC50
# [21] = tested on: BT-549 (breast cancer cell line); assay: NCI-60 single-dose assay; assay type: cell-based, human; conditions: Homo sapiens, BT-549, read-out: growth inhibition (GI%) and cytotoxicity (negative values)
# Text: as §1
# [22] = tested on: MDA-MB-231/ATCC (breast cancer cell line); assay: NCI-60 single-dose assay; assay type: cell-based, human; conditions: Homo sapiens, MDA-MB-231, read-out: growth inhibition (GI%) and cytotoxicity (negative values)
# Text: as §1
# [23] = tested on: MDA-MB-468 (breast cancer cell line); assay: NCI-60 single-dose assay; assay type: cell-based, human; conditions: Homo sapiens, MDA-MB-468, read-out: growth inhibition (GI%) and cytotoxicity (negative values)
# Text: as §1
# [24] = tested on: T-47D (breast cancer cell line); assay: NCI-60 single-dose assay; assay type: cell-based, human; conditions: Homo sapiens, T47D, read-out: growth inhibition (GI%) and cytotoxicity (negative values)
# Text: as §1
# [25] = Huh-7, read-out: ZIKV/Huh‐7 EC50
# [26] = preliminary screening (50, 5, 0.5 μM), Huh-7, read-out: ZIKV/Huh‐7 EC50
SMILES,inhibition at 10 µM [1] [%],CC50 at 24 h [2] [µM],"EC50 [3, 25] [µM]",inhibition at 10 µM [4] [%],inhibition at 10 µM [5] [%],inhibition at 10 µM [8] [%],inhibition at 10 µM [9] [%],inhibition at 10 µM [10] [%],inhibition at 10 µM [11] [%],inhibition at 10 µM [12] [%],inhibition at 10 µM [13] [%],inhibition at 10 µM [14] [%],inhibition at 10 µM [16] [%],inhibition at 10 µM [17] [%],inhibition at 10 µM [18] [%],EC50 [20] [µM],inhibition at 10 µM [21] [%],inhibition at 10 µM [7] [%],inhibition at 10 µM [22] [%],inhibition at 10 µM [23] [%],also measured
COc1ccccc1N1CCN(CCNC(=O)c2[nH]c3c(c2Cl)CCCc2ccccc2-3)CC1 [Compound 5],95.8,29.4,3.82,82.8,79.2,< 60,93,< 60,70,94.6,90.1,61.8,92.5,< 60,71.6,–,–,–,–,–,inhibition at 10 µM [6]: 85.5%; growth inhibition (GI%) and cytotoxicity (negative values) ([7]; human): −48.74%; inhibition at 10 µM [15]: 63%; growth inhibition (GI%) reached against cancer cell lines of the NCI-60 panel [19]: > 90%
O=C(NCCN1CCN(c2ccc(Cl)cc2)CC1)c1c(Cl)[nH]c2c1CCCc1ccccc1-2 [Compound 13],70.9,77.2,1.3,< 60,–,< 60,61.7,–,–,< 60,70.7,< 60,< 60,< 60,< 60,41.3,< 60,< 60,< 60,95.3,"CC50 [2]: 99 µM; selectivity index (SI) ([3]; ZIKV, Huh-7 cells, CC50/EC50): 20.20; EC50 ([3]; Huh-7, 48 h): 3.08 µM"
"N#Cc1ccccc1N1CCN(CCNC(=O)c2c(Cl)[nH]c3c2CCCc2ccccc2-3)CC1 [Compound 18, 2-Chloro-N-(2-(4-(2-cyanophenyl)piperazin-1-yl)ethyl)-1,4,5,6-tetrahydrobenzo[6,7]cyclohepta[1,2-b]pyrrole-3-carboxamide]",75.3,35,–,< 60,< 60,< 60,81.8,< 60,67,70.1,74.2,64.5,61.3,< 60,< 60,49.4,78.3,< 60,< 60,98.7,"EC50 [3, 26]: 4.11 µM; inhibition at 10 µM [15]: < 60%; inhibition at 10 µM [24]: 71.8%; growth inhibition (GI%) reached against cancer cell lines of the NCI-60 panel [19]: > 90%"
"O=C(NCCN1CCN(c2ccccc2)CC1)c1c(Cl)[nH]c2c1CCCc1ccccc1-2 [Compound 12, 2-Chloro-N-(2-(4-phenylpiperazin-1-yl)ethyl)-1,4,5,6-tetrahydrobenzo[6,7]cyclohepta[1,2-b]pyrrole-3-carboxamide]",70.9,72.8,–,< 60,–,< 60,< 60,–,–,65.8,78.7,< 60,< 60,< 60,< 60,3.49,–,< 60,–,–,"CC50 [2]: 74.5 µM; EC50 [3, 26]: 1.54 µM"
O=C(NCCN1CCN(c2ccccc2Cl)CC1)c1c(Cl)[nH]c2c1CCCc1ccccc1-2 [Compound 14],70.3,36.7,–,< 60,–,< 60,< 60,–,63.6,66.5,< 60,< 60,< 60,< 60,< 60,–,< 60,< 60,< 60,82.4,"EC50 [3, 26]: 4.74 µM"
COc1ccccc1N1CCN(CCNC(=O)c2c(Cl)[nH]c3c2CCCc2ccccc2-3)CC1 [Compound 15],92.7,38,4.74,60.6,< 60,< 60,76.5,< 60,63.6,65.2,95.5,< 60,66.4,67,< 60,17.7,66.5,< 60,< 60,94.8,inhibition at 10 µM [15]: < 60%

# Source: PMC12566046, “Arylpiperazinyl-Benzocycloheptapyrrole-Carboxamides Endowed with Dual Anticancer and Antiviral Activities” (Molecules, 2025)
